Test results reported in PMC11597478, “Kinin B1- and B2-Receptor Subtypes Contract Isolated Bovine Ciliary Muscle: Their Role in Ocular Lens Function and Intraocular Pressure Reduction” (Pharmaceuticals, 2024).
Where two headings read alike, the source gives them in different places. Square brackets hold non-standard residues; d marks the D form. Peptide text beside a SMILES is read from it. * marks the point of attachment. X1 = COc1ccc(C[C@@H](CN[C@@H](CCCNC(=N)N)C(=O)O)N*)cc1; Hyp = O=C(O)[C@@H]1C[C@@H](O)CN1; 2Thi = N[C@@H](Cc1cccs1)C(=O)O

What was measured:
[1] = target: cloned B2 receptor; settings: ref [1]; cited from earlier work
[2] = target: cloned B2 receptor; settings: ref [1]; read-out: Ki, cloned B2 receptor (mouse); cited from earlier work
[3] = target: cloned B2 receptor; settings: ref [1]; read-out: Ki, cloned B2 receptor (rabbit); cited from earlier work
[4] = tested on: bovine ciliary muscle (BCM) strips; assay: tissue or blood; type: cell-based; settings: for share of the maximal contraction accounted for by the first high affinity/potency phase: biphasic C-R curve, BCM strips; for Max. Tension Generated During Contraction: freshly isolated BCM strips, Krebs 37 °C, 1 g load, 7–11 concentrations (0.1 nM–10 µM), mean ± SEM, 3–8 experiments
Description: The methods utilized in the current studies were adapted from Lograno and Romano [13] and Ohia et al., with some minor modifications. Fresh bovine eyeballs were obtained from a local abattoir (Fisher Ham and Meat Company, Houston, TX, USA) and transported to the laboratory in ice. Whole eyeballs were placed in warm oxygenated Krebs buffer solution for 30 min to ensure equilibration before dissection of the ciliary muscle. Briefly, the anterior segment was dissected out of whole eyeballs after an incision was made at the limbus. The anterior segment containing the cornea, anterior uvea, and lens was then inverted and the lens dislodged with a probe along with the attached vitreous humor. After removal of the vitreous humor and lens, the whole ciliary muscle (comprising both longitudinal and circular portions) was quickly isolated and dissected from the scleral spur and choroid. Muscle strips of 4–5 mm in length were cut and mounted in 25 mL organ baths containing oxygenated Krebs solution at 37 °C using a silk thread linked to an isometric strain gauge under a constant load of 1g tension. The tissues were then allowed to equilibrate for 30 min. Two ciliary muscle strips were prepared from each eyeball and four to eight strips were used for each series of experiments. The composition of the Krebs solution used (mM) was NaCl, 118; KCl, 4.8; CaCl2, 2.5; KH2PO4, 1.2; NaHCO3, 25; MgSO4, 2.0; dextrose, 10 and flurbiprofen, 0.003 (pH 7.4), all purchased from Sigma-Aldrich, St. Louis, MO (USA). […] A robust response was characterized as a single contraction that consistently yielded a tension in the muscle induced by carbachol of 0.15–0.3 gm. […] Tissue strips were then thoroughly rinsed with fresh buffer solution via a series of buffer additions and drainage activities to remove any residual muscarinic agonist, and the preload was readjusted prior to starting the actual study with kininergic ligands. Concentration–response studies employed 7–11 compound concentrations (0.1 nM to 10 µM) and data from multiple experiments were collected.
The contractile responses obtained were expressed as gram tension developed and as percentages of the maximum response of each of the compounds. GraphPad Prism 4.0 Software (San Diego, CA, USA) was then used to construct the concentration–response curves for the kinins and to derive the half-maximal stimulation potencies (EC50) of each phase of the bi-phasic curves and the values tabulated as previously described.

[5] = tested on: rat ileum; settings: B1-receptor in rat ileum, contraction; ref [25]; read-out: Functional potency, RI, HP Site; cited from earlier work
From the text: Table 2 Ability of BK and Des-Arg^9-BK to Contract Various Tissues of Different Species or to Mobilize Intracellular Ca^2+ in human Ocular Cells. | column: RI || In the current studies, both BK and Des-Arg^9-BK contracted the BCM in a biphasic fashion, indicating the involvement of both B1 and B2 receptors in the smooth muscle contraction process. Other agonist peptides related to BK also elicited similar profiles of contractility, thereby substantiating the effects of BK and Des-Arg^9-BK in this specific tissue. Furthermore, the role of both kinin receptor subtypes being responsible for contracting BCM in vitro was confirmed by sequentially recording the functional responses of the tissue in the presence of B1- and B2-receptor antagonists in numerous ...

[6] = tested on: rat uterus strips; settings: B2-receptor-mediated contraction; ref [1],[2],[3],[18],[20],[23]; read-out: Functional potency, RUT, HP Site; cited from earlier work
From the text: Table 2 Ability of BK and Des-Arg^9-BK to Contract Various Tissues of Different Species or to Mobilize Intracellular Ca^2+ in human Ocular Cells. | column: RUT

[7] = tested on: human ciliary muscle (hCM) cells; settings: [Ca2+]i mobilization, first value of cell; single B2-receptor subtype; ref [2],[8]; read-out: Functional potency, hCM Cells, HP Site; cited from earlier work
From the text: (§1) Table 2 Ability of BK and Des-Arg^9-BK to Contract Various Tissues of Different Species or to Mobilize Intracellular Ca^2+ in human Ocular Cells. | column: hCM/hTM Cells

[8] = tested on: human trabecular meshwork (hTM) cells; settings: [Ca2+]i mobilization, second value of cell; single B2-receptor subtype; ref [2],[8]; read-out: Functional potency, hTM Cells, HP Site; cited from earlier work
From the text: as §1

[9] = tested on: human umbilical vein; settings: B2-receptor-mediated contraction; ref [1],[2],[3],[18],[20],[23]; read-out: Functional potency, HUV, HP Site; cited from earlier work
From the text: Table 2 Ability of BK and Des-Arg^9-BK to Contract Various Tissues of Different Species or to Mobilize Intracellular Ca^2+ in human Ocular Cells. | column: HUV

[10] = tested on: bovine aortic endothelial cells; settings: ref [21]; cited from earlier work
From the text: Figure 2 Chemical structures of bradykinin and its key analogs and those of the selective B1- and B2-receptor antagonists. The amino acid composition and linkage to form bradykinin and its analogs (linear peptides) are depicted in the upper panel.

[11] = target: kinin B1 receptor (Oryctolagus cuniculus) (UniProt P48748); settings: cited from earlier work
UniProt P48748, sequence (P48748 whole entry): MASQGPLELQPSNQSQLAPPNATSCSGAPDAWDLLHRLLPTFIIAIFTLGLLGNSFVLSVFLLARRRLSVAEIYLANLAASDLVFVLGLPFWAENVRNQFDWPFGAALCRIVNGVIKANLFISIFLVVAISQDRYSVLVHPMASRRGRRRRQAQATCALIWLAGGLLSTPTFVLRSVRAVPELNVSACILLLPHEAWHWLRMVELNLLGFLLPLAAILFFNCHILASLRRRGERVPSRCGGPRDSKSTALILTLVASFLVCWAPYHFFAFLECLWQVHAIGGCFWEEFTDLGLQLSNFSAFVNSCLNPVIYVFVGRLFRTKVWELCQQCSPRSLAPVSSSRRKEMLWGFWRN

[12] = target: kinin B2 receptor (Mus musculus) (UniProt P32299); settings: cited from earlier work
UniProt P32299, sequence (P32299 whole entry): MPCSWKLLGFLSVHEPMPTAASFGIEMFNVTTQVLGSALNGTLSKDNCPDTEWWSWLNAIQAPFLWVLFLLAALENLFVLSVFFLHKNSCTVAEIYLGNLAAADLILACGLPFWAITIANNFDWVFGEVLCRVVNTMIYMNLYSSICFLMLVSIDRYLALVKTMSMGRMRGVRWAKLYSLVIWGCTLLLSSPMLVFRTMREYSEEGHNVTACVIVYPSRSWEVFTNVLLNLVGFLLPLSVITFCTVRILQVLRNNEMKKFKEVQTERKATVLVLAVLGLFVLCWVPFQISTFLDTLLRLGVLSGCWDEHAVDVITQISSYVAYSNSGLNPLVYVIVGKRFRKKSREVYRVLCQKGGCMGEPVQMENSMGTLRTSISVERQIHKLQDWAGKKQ

[13] = target: kinin B2 receptor (Oryctolagus cuniculus) (UniProt Q28642); settings: cited from earlier work
UniProt Q28642, sequence (Q28642 whole entry): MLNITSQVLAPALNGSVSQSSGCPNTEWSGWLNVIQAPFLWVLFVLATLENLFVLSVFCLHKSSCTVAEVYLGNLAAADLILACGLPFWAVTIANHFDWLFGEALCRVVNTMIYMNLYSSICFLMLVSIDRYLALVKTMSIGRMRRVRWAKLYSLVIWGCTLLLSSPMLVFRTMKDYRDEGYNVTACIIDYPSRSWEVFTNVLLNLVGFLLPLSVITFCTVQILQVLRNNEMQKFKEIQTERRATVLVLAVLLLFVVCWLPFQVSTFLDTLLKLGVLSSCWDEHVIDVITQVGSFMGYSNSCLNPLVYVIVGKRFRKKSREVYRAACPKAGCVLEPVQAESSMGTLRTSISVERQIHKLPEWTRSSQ

[14] = target: kinin B1 receptor (Homo sapiens) (UniProt P46663); settings: cited from earlier work
UniProt P46663, sequence (P46663 whole entry): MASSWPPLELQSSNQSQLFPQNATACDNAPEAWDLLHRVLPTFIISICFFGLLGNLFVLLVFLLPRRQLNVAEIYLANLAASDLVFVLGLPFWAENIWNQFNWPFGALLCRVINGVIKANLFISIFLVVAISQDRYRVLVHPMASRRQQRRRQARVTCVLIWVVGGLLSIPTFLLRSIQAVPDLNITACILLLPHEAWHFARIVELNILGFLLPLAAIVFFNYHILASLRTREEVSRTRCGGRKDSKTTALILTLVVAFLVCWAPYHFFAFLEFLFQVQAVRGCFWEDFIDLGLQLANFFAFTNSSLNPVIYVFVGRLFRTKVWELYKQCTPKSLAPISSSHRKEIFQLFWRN

[15] = target: kinin B1 receptor (Mus musculus) (UniProt Q61125); settings: cited from earlier work
UniProt Q61125, sequence (Q61125 whole entry): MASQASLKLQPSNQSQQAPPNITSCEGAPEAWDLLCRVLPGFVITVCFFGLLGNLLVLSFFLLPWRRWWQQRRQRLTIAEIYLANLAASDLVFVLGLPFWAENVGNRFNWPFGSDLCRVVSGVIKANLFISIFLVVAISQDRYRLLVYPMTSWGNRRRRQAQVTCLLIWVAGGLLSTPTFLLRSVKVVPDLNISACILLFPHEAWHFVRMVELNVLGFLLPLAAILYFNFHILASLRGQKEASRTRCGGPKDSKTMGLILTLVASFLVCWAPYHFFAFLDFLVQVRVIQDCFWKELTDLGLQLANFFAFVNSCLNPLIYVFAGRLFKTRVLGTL

[16] = target: kinin B2 receptor (Homo sapiens) (UniProt P30411); settings: cited from earlier work
UniProt P30411, sequence (P30411 whole entry): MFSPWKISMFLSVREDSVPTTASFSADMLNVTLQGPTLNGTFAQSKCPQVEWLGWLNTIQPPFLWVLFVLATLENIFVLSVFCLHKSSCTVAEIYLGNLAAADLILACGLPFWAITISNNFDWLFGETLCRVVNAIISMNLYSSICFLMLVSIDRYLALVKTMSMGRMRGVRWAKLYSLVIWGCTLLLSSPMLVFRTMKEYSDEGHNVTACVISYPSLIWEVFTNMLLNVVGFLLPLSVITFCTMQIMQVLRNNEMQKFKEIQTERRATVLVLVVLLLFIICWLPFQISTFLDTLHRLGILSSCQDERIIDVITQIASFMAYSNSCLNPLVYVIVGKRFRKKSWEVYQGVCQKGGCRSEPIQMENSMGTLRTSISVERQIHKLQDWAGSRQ

[17] = target: kinin B1 receptor (Mus musculus) (UniProt Q61125); settings: cited from earlier work; remark: listed apart in the source

**Q.** Which Ki [1] does the source give for `N=C(N)NCCC[C@H](N)C(=O)N1CCC[C@H]1C(=O)N1CCC[C@H]1C(=O)NCC(=O)N[C@@H](Cc1ccccc1)C(=O)N[C@@H](CO)C(=O)N1CCC[C@H]1C(=O)N[C@@H](Cc1ccccc1)C(=O)O` [Des-Arg^9-BK, Des-Arg^9-Bradykinin] here?
**A.** Its Ki is 8.1 µM.

**Q.** What about the Ki [2] of the same compound?
**A.** Its Ki is 6.4 µM.

**Q.** And the Ki [3]?
**A.** The Ki was > 1 µM.

**Q.** What about the EC50 [4] of the same compound?
**A.** Its EC50 is 0.03 ± 0.0019 µM.

**Q.** And the “share of the maximal contraction accounted for by the first high affinity/potency phase” value (“share … by the first high affinity/potency phase” below) [4]?
**A.** Its value is 40–60%.

**Q.** What about the “Max. Tension Generated During Contraction” value [4] of the same compound?
**A.** The value was 0.06 ± 0.01 gm tension.

**Q.** What about the EC50 [5] of the same compound?
**A.** Its EC50 is 0.0186 µM.

**Q.** And the EC50 [6]?
**A.** The EC50 was > 1 µM.

**Q.** And the EC50 [7]?
**A.** The EC50 was 4.2 µM.

**Q.** And the EC50 [8]?
**A.** The EC50 was 3.6 µM.

**Q.** What about the EC50 [9] of the same compound?
**A.** Its EC50 is > 1 µM.

**Q.** Which results are given for `N=C(N)NCCC[C@H](NC(=O)[C@H](Cc1ccccc1)NC(=O)[C@@H]1CCCN1C(=O)[C@H](CO)NC(=O)[C@H](Cc1ccccc1)NC(=O)CNC(=O)[C@@H]1C[C@@H](O)CN1C(=O)[C@@H]1CCCN1C(=O)[C@@H](N)CCCNC(=N)N)C(=O)O` [Hyp^3-BK, Hyp^3-Bradykinin]?
**A.** share of the maximal contraction accounted for by the first high affinity/potency phase [4]: 40–60%; Max. Tension Generated During Contraction [4]: 0.04 ± 0.01 gm tension

**Q.** With `N=C(N)NCCC[C@H](NC(=O)[C@H](Cc1ccccc1)NC(=O)[C@@H]1CCCN1C(=O)[C@H](CO)NC(=O)[C@H](Cc1ccccc1)NC(=O)CNC(=O)[C@@H]1CCCN1C(=O)[C@@H]1CCCN1C(=O)[C@H](CCCNC(=N)N)NC(=O)[C@@H](N)CCCCN)C(=O)O` [Lys-BK, Lys-Bradykinin] as the compound, how does the “share … by the first high affinity/potency phase” value [4] read?
**A.** The value was 40–60%.

**Q.** What about the “Max. Tension Generated During Contraction” value [4] of the same compound?
**A.** Its value is 0.06 ± 0.01 gm tension.

**Q.** For `CSCC[C@H](N)C(=O)N[C@@H](CCCCN)C(=O)N[C@@H](CCCNC(=N)N)C(=O)N1CCC[C@H]1C(=O)N1CCC[C@H]1C(=O)NCC(=O)N[C@@H](Cc1ccccc1)C(=O)N[C@@H](CO)C(=O)N1CCC[C@H]1C(=O)N[C@@H](Cc1ccccc1)C(=O)N[C@@H](CCCNC(=N)N)C(=O)O` [Met-Lys-BK, Met-Lys-Bradykinin], which “share … by the first high affinity/potency phase” value [4] is on record?
**A.** The value was 40–60%.

**Q.** What about the “Max. Tension Generated During Contraction” value [4] of the same compound?
**A.** The value was 0.06 ± 0.01 gm tension.

**Q.** For `COc1ccc(C[C@@H](CN[C@@H](CCCNC(=N)N)C(=O)O)NC(=O)[C@@H]2CCCN2C(=O)[C@H](CO)NC(=O)[C@H](Cc2cccs2)NC(=O)CNC(=O)[C@@H]2C[C@@H](O)CN2C(=O)[C@@H]2CCCN2C(=O)[C@@H](N)CCCNC(=N)N)cc1` [RMP-7] (H-RP[Hyp]G[2Thi]SP-X1), which EC50 [4] is on record?
**A.** The EC50 was 0.0035 ± 0.0005 µM.

**Q.** And the “share … by the first high affinity/potency phase” value [4]?
**A.** The value was 40–60%.

**Q.** What about the “Max. Tension Generated During Contraction” value [4] of the same compound?
**A.** Its value is 0.07 ± 0.01 gm tension.

**Q.** With `CCCC[P+](CCCC)(CCCC)Cc1ccc(NC(=O)[C@H](Cc2ccc3ccccc3c2)NC(=NC2CCCCC2)NC2CCCCC2)cc1.[Cl-]` [WIN-64338] as the compound, how does the “effect on cGMP production induced by Des-Arg^9-BK” value [10] read?
**A.** Its value is “block the cGMP-producing effects of Des-Arg^9-BK”.

**Q.** Which EC50 ([4]; Bos taurus, carbachol C-R curve in the absence and presence of atropine, n = 6, read-out: potency (EC50) from monophasic carbachol concentration-response curve) does the source give for `CN1[C@@H]2CC[C@H]1C[C@@H](OC(=O)C(CO)c1ccccc1)C2` (stereo partly shown) [atropine] here?
**A.** Its EC50 is 1 ± 0.07 µM.

**Q.** And the “effect of muscarinic antagonist on carbachol-induced BCM contraction” value ([4]; increasing concentrations of atropine, n = 6–8)?
**A.** Its value is “concentration-dependently blocked”.

**Q.** For `C[N+](C)(C)CCOC(N)=O` [carbachol], which “contraction of BCM by positive control agent” value ([4]; monophasic concentration-dependent profile, n = 6–8) is on record?
**A.** The value was “always contracted the tissue”.

**Q.** Which results are given for Bradykinin (from UniProt P01042)?
**A.** Ki [11]: 5 µM; Ki [12]: 0.00048 µM; Ki [13]: 0.0045 µM; Ki [14]: 10 µM; Ki [15]: 0.2 µM; Ki [16]: 0.00054 µM

**Q.** For “Des-Arg9-bradykinin (from UniProt P01042)”, which Ki [17] is on record?
**A.** Its Ki is 0.0007 µM.
